Measured values taken from patent US20240343704A1, “HALO-SUBSTITUTED AMINO PYRIDINE COMPOUNDS AS INHIBITORS OF THE HAEMATOPOIETIC PROGENITOR KINASE 1 (HPK1)” (priority 2021, published 2024).

What was measured:
[1] = molecular target: T1, Recombinant (1-346) HPK1 (h) (Homo sapiens, UniProt Q92918); experiment: HPK1 Human STE Kinase Enzymatic Radiometric Assay; format: biochemical; conditions: read-out: HPK1 IC50 nM Range*
T1 construct: Recombinant (1-346) HPK1 (h) is incubated with 8 mM MOPS pH 7.0
T1 sequence (Q92918 1-346): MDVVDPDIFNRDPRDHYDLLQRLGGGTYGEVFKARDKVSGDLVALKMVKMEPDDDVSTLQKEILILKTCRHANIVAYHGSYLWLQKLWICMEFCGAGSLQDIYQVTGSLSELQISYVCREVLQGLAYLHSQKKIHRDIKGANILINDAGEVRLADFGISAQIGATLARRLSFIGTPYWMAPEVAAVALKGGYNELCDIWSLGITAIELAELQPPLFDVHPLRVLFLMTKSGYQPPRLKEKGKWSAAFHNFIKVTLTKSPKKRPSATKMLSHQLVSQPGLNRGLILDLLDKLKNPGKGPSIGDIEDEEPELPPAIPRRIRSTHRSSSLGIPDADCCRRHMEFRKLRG
Procedure: A stock solution of 10 mM of test compound is prepared in DMSO. The compound plate was prepared by 3-fold and 9-point serial dilutions. […] The reaction is initiated by The addition of the Mg/ATP mix. After incubation for 40 minutes at RT, the reaction is stopped by the addition of phosphoric acid to a concentration of 0.5%.

Lck (h) = Lck (h) (Homo sapiens, UniProt P06239); experiment: Lck Human  Kinase Enzymatic Radiometric Assay; format: biochemical; conditions: read-out: Lck IC50 nM Range*
Lck (h), sequence (P06239 whole entry): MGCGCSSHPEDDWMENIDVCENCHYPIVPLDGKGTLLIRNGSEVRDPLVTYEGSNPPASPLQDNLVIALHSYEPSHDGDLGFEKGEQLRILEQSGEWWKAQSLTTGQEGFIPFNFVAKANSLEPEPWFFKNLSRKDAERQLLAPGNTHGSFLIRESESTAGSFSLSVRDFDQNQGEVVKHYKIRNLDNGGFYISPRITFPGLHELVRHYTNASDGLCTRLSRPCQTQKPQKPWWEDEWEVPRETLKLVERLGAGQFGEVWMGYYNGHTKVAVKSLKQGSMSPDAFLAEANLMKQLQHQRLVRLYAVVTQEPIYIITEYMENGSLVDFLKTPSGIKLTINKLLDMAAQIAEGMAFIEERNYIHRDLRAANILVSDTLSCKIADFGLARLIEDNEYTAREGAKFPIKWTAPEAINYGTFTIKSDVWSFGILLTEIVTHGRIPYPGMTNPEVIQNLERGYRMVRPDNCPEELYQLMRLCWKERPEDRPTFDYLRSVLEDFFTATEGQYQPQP
Procedure, shortened: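 Substrate 33P-incorporation measured by scintillation counting after spotting on P30 filtermat and phosphoric acid washes. Human Lck reacted 40 min at RT in 50 mM Tris pH 7.5 with 10 mM MgAcetate, [gamma-33P]-ATP, 250 uM Cdc2 peptide, 0.1 mM EGTA and 0.1 mM Na3VO4.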

Row | SMILES | IC50 [1] | IC50 (Lck (h))
1 | Cc1cc(-c2cc(-c3ccc4c(c3)CCNC4=O)c(N)nc2F)cc2c1CCN(CCCC(F)F)C2 [I-446, 6-(2-amino-5-(2-(4,4-difluorobutyl)-5-methyl-1,2,3,4-tetrahydroisoquinolin-7-yl)-6-fluoropyridin-3-yl)-3,4-dihydroisoquinolin-1(2H)-one] | 0.1 to 10 nM | > 1000 nM
2 | Nc1nc(F)c(-c2ccc(N3CCC4(CC3)CN(C3CCC3)C4)cc2)cc1-c1cc2c(cc1F)C(=O)NCC2 [I-449, 6-(2-amino-5-(4-(2-cyclobutyl-2,7-diazaspiro[3.5]nonan-7-yl)phenyl)-6-fluoropyridin-3-yl)-7-fluoro-3,4-dihydroisoquinolin-1(2H)-one] | 0.1 to 10 nM | > 1000 nM
3 | CN(C)Cc1cc(-c2cc(-c3ccc4c(c3)CCNC4=O)c(N)nc2F)ccc1N1CCN(C2CCCC2)CC1 [I-451, 6-(2-amino-5-(4-(4-cyclopentylpiperazin-1-yl)-3-((dimethylamino)methyl)phenyl)-6-fluoropyridin-3-yl)-3,4-dihydroisoquinolin-1(2H)-one] | 0.1 to 10 nM | > 1000 nM
4 | Cc1cc2cc(-c3cc(-c4ccc(N5CCN(CC6CC6)CC5)cc4)c(F)nc3N)cc(F)c2c(=O)[nH]1 [I-454, 6-(2-amino-5-(4-(4-(cyclopropylmethyl)piperazin-1-yl)phenyl)-6-fluoropyridin-3-yl)-8-fluoro-3-methylisoquinolin-1(2H)-one] | 0.1 to 10 nM | > 1000 nM
5 | Nc1nc(F)c(-c2ccc(N3CCN(CC4CC4)CC3)cc2)cc1-c1ccc2c(=O)[nH]cc(F)c2c1 [I-455, 6-(2-amino-5-(4-(4-(cyclopropylmethyl)piperazin-1-yl)phenyl)-6-fluoropyridin-3-yl)-4-fluoroisoquinolin-1(2H)-one] | 0.1 to 10 nM | > 1000 nM
6 | Cc1c[nH]c(=O)c2ccc(-c3cc(-c4ccc(N5CCN(CC6CC6)CC5)cc4)c(F)nc3N)cc12 [I-457, 6-(2-amino-5-(4-(4-(cyclopropylmethyl)piperazin-1-yl)phenyl)-6-fluoropyridin-3-yl)-4-methylisoquinolin-1(2H)-one] | 0.1 to 10 nM | > 1000 nM
7 | Cc1[nH]c(=O)c2c(F)cc(-c3cc(-c4ccc(N5CCN(C(C)C)CC5)cc4)c(F)nc3N)cc2c1F [I-481, 6-(2-amino-6-fluoro-5-(4-(4-isopropylpiperazin-1-yl)phenyl)pyridin-3-yl)-4,8-difluoro-3-methylisoquinolin-1(2H)-one] | 0.1 to 10 nM | > 1000 nM
8 | CN(C)Cc1cc(-c2cc(-c3ccc4c(=O)[nH]cc(F)c4c3)c(N)nc2F)ccc1C1CCOCC1 [I-503, 6-(2-amino-5-(3-((dimethylamino)methyl)-4-(tetrahydro-2H-pyran-4-yl)phenyl)-6-fluoropyridin-3-yl)-4-fluoroisoquinolin-1(2H)-one] | 0.1 to 10 nM | > 1000 nM
9 | COC1CCN(Cc2cc(-c3cc(-c4cc5c(cc4F)C(=O)NCC5)c(N)nc3F)ccc2N2CCOCC2)C1 (stereo not shown) [I-543, 6-(2-amino-6-fluoro-5-(3-((3-methoxypyrrolidin-1-yl)methyl)-4-morpholinophenyl)pyridin-3-yl)-7-fluoro-3,4-dihydroisoquinolin-1(2H)-one] | 0.1 to 10 nM | 11 to 100 nM
10 | Nc1nc(F)c(-c2ccc(N3CCN(CC4CC4)CC3)cc2)cc1-c1cc2c(F)c[nH]c(=O)c2cc1F [I-548, 6-(2-amino-5-(4-(4-(cyclopropylmethyl)piperazin-1-yl)phenyl)-6-fluoropyridin-3-yl)-4,7-difluoroisoquinolin-1(2H)-one] | 0.1 to 10 nM | > 1000 nM
11 | CN(C)Cc1nc(-c2cc(-c3ccc4c(c3)CCNC4=O)c(N)nc2F)ccc1N1CCOCC1 [I-551, 6-(6′-amino-6-((dimethylamino)methyl)-2′-fluoro-5-morpholino-[2,3′-bipyridin]-5′-yl)-3,4-dihydroisoquinolin-1(2H)-one] | 0.1 to 10 nM | > 1000 nM
